{
  "source": "PubChem BioAssay (NCI)",
  "test_in_all_cases": "NCI tumour cell line growth inhibition, 384-well format",
  "key": {"KM12 colon": {"tested_on": "KM12 colon"}, "RPMI-8226 leukemia": {"tested_on": "RPMI-8226 leukemia"}, "SNB-75 CNS": {"tested_on": "SNB-75 CNS"}, "CAKI-1 renal": {"tested_on": "CAKI-1 renal"}, "UACC-62 melanoma": {"tested_on": "UACC-62 melanoma"}, "CCRF-CEM leukemia": {"tested_on": "CCRF-CEM leukemia"}, "SK-MEL-5 melanoma": {"tested_on": "SK-MEL-5 melanoma"}, "UACC-257 melanoma": {"tested_on": "UACC-257 melanoma"}, "HOP-62 NSCLC": {"tested_on": "HOP-62 NSCLC"}, "MOLT-4 leukemia": {"tested_on": "MOLT-4 leukemia"}, "PC-3 prostate": {"tested_on": "PC-3 prostate"}, "SNB-19 CNS": {"tested_on": "SNB-19 CNS"}, "T-47D breast": {"tested_on": "T-47D breast"}, "NCI-H23 lung": {"tested_on": "NCI-H23 lung"}, "OVCAR-4 ovarian": {"tested_on": "OVCAR-4 ovarian"}, "EKVX NSCLC": {"tested_on": "EKVX NSCLC"}, "HL-60(TB) leukemia": {"tested_on": "HL-60(TB) leukemia"}, "NCI-H460 NSCLC": {"tested_on": "NCI-H460 NSCLC"}, "SN12C renal": {"tested_on": "SN12C renal"}, "MCF7 breast": {"tested_on": "MCF7 breast"}, "SK-MEL-2 melanoma": {"tested_on": "SK-MEL-2 melanoma"}, "OVCAR-8 ovarian": {"tested_on": "OVCAR-8 ovarian"}, "OVCAR-3 ovarian": {"tested_on": "OVCAR-3 ovarian"}, "OVCAR-5 ovarian": {"tested_on": "OVCAR-5 ovarian"}, "ACHN renal": {"tested_on": "ACHN renal"}, "HT29 colon": {"tested_on": "HT29 colon"}, "DU-145 prostate": {"tested_on": "DU-145 prostate"}, "NCI/ADR-RES ovarian": {"tested_on": "NCI/ADR-RES ovarian"}, "NCI-H322M lung": {"tested_on": "NCI-H322M lung"}},
  "note": "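GI50 marks 50% less growth. TGI: total growth inhibition.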",
  "data": [
    {"compound": "C[C@@H]1OC(O)[C@@H](F)[C@H](O)[C@@H]1O", "note": "(stereo partly drawn)", "values": [
      {"measurement": "GI50", "setting": "KM12 colon", "value": "> 100", "unit": "µM"},
      {"measurement": "TGI", "setting": "KM12 colon", "value": "> 100", "unit": "µM"},
      {"measurement": "GI50", "setting": "RPMI-8226 leukemia", "value": "> 100", "unit": "µM"},
      {"measurement": "TGI", "setting": "RPMI-8226 leukemia", "value": "> 100", "unit": "µM"},
      {"measurement": "GI50", "setting": "SNB-75 CNS", "value": "> 100", "unit": "µM"},
      {"measurement": "TGI", "setting": "SNB-75 CNS", "value": "> 100", "unit": "µM"},
      {"measurement": "GI50", "setting": "CAKI-1 renal", "value": "> 100", "unit": "µM"},
      {"measurement": "TGI", "setting": "CAKI-1 renal", "value": "> 100", "unit": "µM"},
      {"measurement": "GI50", "setting": "UACC-62 melanoma", "value": "> 100", "unit": "µM"},
      {"measurement": "TGI", "setting": "UACC-62 melanoma", "value": "> 100", "unit": "µM"},
      {"measurement": "GI50", "setting": "CCRF-CEM leukemia", "value": "> 100", "unit": "µM"},
      {"measurement": "TGI", "setting": "CCRF-CEM leukemia", "value": "> 100", "unit": "µM"},
      {"measurement": "GI50", "setting": "SK-MEL-5 melanoma", "value": "> 100", "unit": "µM"},
      {"measurement": "TGI", "setting": "SK-MEL-5 melanoma", "value": "> 100", "unit": "µM"},
      {"measurement": "GI50", "setting": "UACC-257 melanoma", "value": "> 100", "unit": "µM"},
      {"measurement": "TGI", "setting": "UACC-257 melanoma", "value": "> 100", "unit": "µM"},
      {"measurement": "GI50", "setting": "HOP-62 NSCLC", "value": "> 100", "unit": "µM"},
      {"measurement": "TGI", "setting": "HOP-62 NSCLC", "value": "> 100", "unit": "µM"},
      {"measurement": "GI50", "setting": "MOLT-4 leukemia", "value": "> 100", "unit": "µM"},
      {"measurement": "TGI", "setting": "MOLT-4 leukemia", "value": "> 100", "unit": "µM"},
      {"measurement": "GI50", "setting": "PC-3 prostate", "value": "> 100", "unit": "µM"},
      {"measurement": "TGI", "setting": "PC-3 prostate", "value": "> 100", "unit": "µM"},
      {"measurement": "GI50", "setting": "SNB-19 CNS", "value": "> 100", "unit": "µM"},
      {"measurement": "TGI", "setting": "SNB-19 CNS", "value": "> 100", "unit": "µM"},
      {"measurement": "GI50", "setting": "T-47D breast", "value": "> 100", "unit": "µM"},
      {"measurement": "TGI", "setting": "T-47D breast", "value": "> 100", "unit": "µM"},
      {"measurement": "GI50", "setting": "NCI-H23 lung", "value": "> 100", "unit": "µM"},
      {"measurement": "TGI", "setting": "NCI-H23 lung", "value": "> 100", "unit": "µM"},
      {"measurement": "GI50", "setting": "OVCAR-4 ovarian", "value": "> 100", "unit": "µM"},
      {"measurement": "TGI", "setting": "OVCAR-4 ovarian", "value": "> 100", "unit": "µM"},
      {"measurement": "GI50", "setting": "EKVX NSCLC", "value": "> 100", "unit": "µM"},
      {"measurement": "TGI", "setting": "EKVX NSCLC", "value": "> 100", "unit": "µM"},
      {"measurement": "GI50", "setting": "HL-60(TB) leukemia", "value": "> 100", "unit": "µM"},
      {"measurement": "TGI", "setting": "HL-60(TB) leukemia", "value": "> 100", "unit": "µM"},
      {"measurement": "GI50", "setting": "NCI-H460 NSCLC", "value": "> 100", "unit": "µM"},
      {"measurement": "TGI", "setting": "NCI-H460 NSCLC", "value": "> 100", "unit": "µM"},
      {"measurement": "GI50", "setting": "SN12C renal", "value": "> 100", "unit": "µM"},
      {"measurement": "TGI", "setting": "SN12C renal", "value": "> 100", "unit": "µM"},
      {"measurement": "GI50", "setting": "MCF7 breast", "value": "> 100", "unit": "µM"},
      {"measurement": "TGI", "setting": "MCF7 breast", "value": "> 100", "unit": "µM"},
      {"measurement": "GI50", "setting": "SK-MEL-2 melanoma", "value": "> 100", "unit": "µM"},
      {"measurement": "TGI", "setting": "SK-MEL-2 melanoma", "value": "> 100", "unit": "µM"},
      {"measurement": "GI50", "setting": "OVCAR-8 ovarian", "value": "> 100", "unit": "µM"},
      {"measurement": "TGI", "setting": "OVCAR-8 ovarian", "value": "> 100", "unit": "µM"},
      {"measurement": "GI50", "setting": "OVCAR-3 ovarian", "value": "> 100", "unit": "µM"},
      {"measurement": "TGI", "setting": "OVCAR-3 ovarian", "value": "> 100", "unit": "µM"},
      {"measurement": "GI50", "setting": "OVCAR-5 ovarian", "value": "> 100", "unit": "µM"},
      {"measurement": "TGI", "setting": "OVCAR-5 ovarian", "value": "> 100", "unit": "µM"},
      {"measurement": "GI50", "setting": "ACHN renal", "value": "> 100", "unit": "µM"},
      {"measurement": "TGI", "setting": "ACHN renal", "value": "> 100", "unit": "µM"},
      {"measurement": "GI50", "setting": "HT29 colon", "value": "> 100", "unit": "µM"},
      {"measurement": "TGI", "setting": "HT29 colon", "value": "> 100", "unit": "µM"},
      {"measurement": "GI50", "setting": "DU-145 prostate", "value": "> 100", "unit": "µM"},
      {"measurement": "TGI", "setting": "DU-145 prostate", "value": "> 100", "unit": "µM"},
      {"measurement": "GI50", "setting": "NCI/ADR-RES ovarian", "value": "> 100", "unit": "µM"},
      {"measurement": "TGI", "setting": "NCI/ADR-RES ovarian", "value": "> 100", "unit": "µM"},
      {"measurement": "GI50", "setting": "NCI-H322M lung", "value": "> 100", "unit": "µM"},
      {"measurement": "TGI", "setting": "NCI-H322M lung", "value": "> 100", "unit": "µM"}
    ]}
  ]
}
